The results in this text go back to patent US9913843B2, “Protein kinase C inhibitors and uses thereof” (Rigel Pharmaceuticals, Inc., priority 2012, dated 2018).

For the test, the system named is PKC mediated IL-2 production in human primary T cells. The experiment in a line: IL-2 ELISA, human primary T cell, anti CD3+CD28+ (whole cell functional assay for PKC mediated IL-2 production). Format: cell-based. Here is the method:
Human primary T cells were prepared as follows. Fresh PBMC's from All Cells (Cat # PB002) were re-suspended in RPMI (RPMI-1640 with L-Glutamine; Mediatech, Inc., Herndon Va., cat. #10-040-CM) with 10% FBS and seeded into flasks and incubated at 37° C. for 2 hours to allow the monocytes to adhere. The non-adherent cells were then centrifuged and re-suspended in RPMI medium containing 40 U/ml IL2 and seeded into a flask pre-coated with 1 μg/ml aCD3 and 5 ug/ml aCD28 (Anti-Human CD3, BD Pharmingen Catalog #555336, Anti-Human CD28, Beckman Coulter Catalog #IM1376). The cells were stimulated for 3-4 days, then transferred to a fresh flask and maintained in RPMI (RPMI-1640 with L-Glutamine; Mediatech, Inc., Herndon Va., cat. #10-040-CM) with 10% FBS and 40 U/ml IL-2.
Human primary T cells (100,000 cells per well) were pre-incubated with or without test compound in RPMI-1640 with L-Glutamine and 10% FBS for 1 hour at 37° C. Cells were then stimulated by transferring them to round-bottom 96-well plates pre-coated with 1 μg/ml aCD3 and 5 μg/ml aCD28. For counter assay, cells were instead stimulated by adding 8× stock solutions of PMA and ionomycin in RPMI-1640 with L-Glutamine and 10% FBS (for final concentrations of 0.5 ng/ml PMA and 0.1 μM ionomycin, both from Calbiochem). Cells were incubated at 37° C. for 24 hours before 100 μL supernatants were harvested for quantification of IL-2 by ELISA using Human IL-2 Duoset ELISA Kit from R and D Systems, Cat. # DY202E.
Compounds 1-156 were tested in a whole cell functional assay for PKC mediated IL-2 production as follows. Human primary T cell isolation and culture: Human primary T cells were prepared as follows. Whole blood was obtained from a healthy volunteer, mixed 1:1 with PBS, layered on to Ficoll Hypaque (Amersham Pharmacia Biotech, Piscataway, N.J., Catalog #17-1440-03) in 2:1 blood/PBS:ficoll ratio and centrifuged for 30 minutes at 4° C. at 1750 rpm. The cells at the serum: ficoll interface were recovered and washed twice with 5 volumes of PBS. These freshly isolated human peripheral blood mononuclear cells were cultured in Yssel's medium containing 40 U/ml IL2 in a flask pre-coated with 1 μg/ml aCD3 and 5 μg/ml aCD28 (Anti-Human CD3, BD Pharmingen Catalog #555336, Anti-Human CD28, Beckman Coulter Catalog #IM1376). The cells were stimulated for 3-4 days, then transferred to a fresh flask and maintained in RPMI (RPMI-1640 with L-Glutamine; Mediatech, Inc., Herndon Va., cat. #10-040-CM) with 10% FBS and 40 U/ml IL-2. The primary T-cells were then washed twice with PBS to remove the IL-2.
Primary T cell stimulation and IL2 ELISA: Human primary T cells (100,000 cells per well) were pre-incubated with or without test compound in Yssel's medium for 1 hour at 37° C. Cells were then stimulated by transferring them to round-bottom 96-well plates pre-coated with 1 μg/ml aCD3 and 5 μg/ml αCD28. For counter assay, cells were instead stimulated by adding 8× stock solutions of PMA and ionomycin in Yssels (for final concentrations of 0.5 ng/ml PMA and 0.1 uM ionomycin, both from Calbiochem). Cells were incubated at 37° C. for 24 hours before 100 μL supernatants were harvested for quantification of IL-2 by ELISA using Human IL-2 Duoset ELISA Kit from R and D Systems, Cat. # DY202E.

[1] abbreviates: 24 h, human primary T cells stimulated with anti-CD3 + anti-CD28, IL-2 by ELISA, read-out: IC50 for blocking IL-2 production.
Setting [2] is: human primary T cells stimulated with anti-CD3 + anti-CD28, 24 h, IL-2 by ELISA, 8 pt, read-out: IL2 ELISA, Human primary T cell, anti-CD3 + CD28, 8 pt (IC50).

Read-outs that look alike come from different tables or passages of the source.

For `Cc1cc(C2CC2)c(-n2nnn(C)c2=O)cc1Nc1ncc(F)c(NC[C@@H]2CCCN3CCCC[C@H]23)n1` [Compound 15, 1-(5-(4-(((1S,9aR)-octahydro-1H-quinolizin-1-yl)methylamino)-5-fluoropyrimidin-2-ylamino)-2-cyclopropyl-4-methylphenyl)-4-methyl-1H-tetrazol-5(4H)-one], the IC50 by setting is: under setting [1], < 30 µM; under setting [2], 10.7 µM.
`Cc1ccc(Nc2ncc(C)c(NC[C@@H]3CCCN4CCCC[C@H]34)n2)cc1C#N` [Compound 67, 5-(4-(((1S,9aR)-octahydro-1H-quinolizin-1-yl)methylamino)-5-methylpyrimidin-2-ylamino)-2-methylbenzonitrile]: the IC50 reads like this: under setting [1], < 30 µM; under setting [2], 1.08 µM.
Consider `COc1ccc(Nc2ncc(C(F)(F)F)c(NC[C@@H]3CCCN4CCCC[C@H]34)n2)cc1-n1nnnc1C` [Compound 105, 5-(trifluoromethyl)-N4-(((1S,9aR)-octahydro-1H-quinolizin-1-yl)methyl)-N2-(4-methoxy-3-(5-methyl-1H-tetrazol-1-yl)phenyl)pyrimidine-2,4-diamine], for which the IC50 reads like this: under setting [1], < 30 µM; under setting [2], 11.8 µM.
The matching figures for `CC1(C)Oc2cc(Nc3ncc(F)c(NC[C@@H]4CCCN5CCCC[C@H]45)n3)ccc2N(CC2CC2)C1=O` [Compound 18, 7-(4-(((1S,9aR)-octahydro-1H-quinolizin-1-yl)methylamino)-5-fluoropyrimidin-2-ylamino)-4-(cyclopropylmethyl)-2,2-dimethyl-2H-benzo[b][1,4]oxazin-3(4H)-one]: < 30 µM and 0.127 µM.
On the same counts, the results for `Cn1nnn(-c2cc(Nc3ncc(C#N)c(NC[C@@H]4CCCN5CCCC[C@H]45)n3)c(F)cc2OCC2COCCO2)c1=O` (stereo partly drawn) [Compound 131, 2-((4-((1,4-dioxan-2-yl)methoxy)-2-fluoro-5-(4-methyl-5-oxo-4,5-dihydro-1H-tetrazol-1-yl)phenyl)amino)-4-((((1S,9aR)-octahydro-2H-quinolizin-1-yl)methyl)amino)pyrimidine-5-carbonitrile] are < 30 µM and 1.3 µM.
In the case of `Cc1nnnn1-c1cc(Nc2ncc(Cl)c(NC[C@@H]3CCCN4CCCC[C@H]34)n2)ccc1F` [Compound 35, 5-chloro-N2-(4-fluoro-3-(5-methyl-1H-tetrazol-1-yl)phenyl)-N4-(((1S,9aR)-octahydro-1H-quinolizin-1-yl)methyl)pyrimidine-2,4-diamine], the IC50 was < 30 µM under setting [1] and 0.0542 µM under setting [2].
On the same counts, the results for `OCCOc1ccc(Nc2ncc(Cl)c(NC[C@@H]3CCCN4CCCC[C@H]34)n2)cc1-n1cnnn1` [Compound 139, 2-(4-((5-chloro-4-((((1S,9aR)-octahydro-2H-quinolizin-1-yl)methyl)amino)pyrimidin-2-yl)amino)-2-(1H-tetrazol-1-yl)phenoxy)ethan-1-ol] are < 30 µM and 0.0175 µM.
On to `N#Cc1cc(Nc2ncc(Cl)c(NC[C@@H]3CCCN4CCCC[C@H]34)n2)ccc1C1CC1` [Compound 41, 5-(4-(((1S,9aR)-octahydro-1H-quinolizin-1-yl)methylamino)-5-chloropyrimidin-2-ylamino)-2-cyclopropylbenzonitrile], for which the IC50 under setting [1] was < 30 µM and the IC50 under setting [2] was 0.0723 µM.
Take `COc1cc(Nc2ncc(C(F)(F)F)c(NC[C@@H]3CCCN4CCCC[C@H]34)n2)cc(OC)c1` [Compound 111, 5-(trifluoromethyl)-N4-(((1S,9aR)-octahydro-1H-quinolizin-1-yl)methyl)-N2-(3,5-dimethoxyphenyl)pyrimidine-2,4-diamine]: the IC50 was < 30 µM under setting [1] and 12.5 µM under setting [2].
In the case of `COc1cnc(Nc2ccc(C)c(-n3cnnn3)c2)nc1NC[C@@H]1CCCN2CCCC[C@H]12` [Compound 73, N4-(((1S,9aR)-octahydro-1H-quinolizin-1-yl)methyl)-5-methoxy-N2-(4-methyl-3-(1H-tetrazol-1-yl)phenyl)pyrimidine-2,4-diamine], the IC50 runs as follows: under setting [1], < 30 µM; under setting [2], 3.27 µM.
Regarding `COc1cnc(Nc2ccc(C)c(C#N)c2)nc1NC[C@@H]1CCCN2CCCC[C@H]12` [Compound 80, 5-(4-(((1S,9aR)-octahydro-1H-quinolizin-1-yl)methylamino)-5-methoxypyrimidin-2-ylamino)-2-methylbenzonitrile], the IC50 runs as follows: under setting [1], < 30 µM; under setting [2], 2.48 µM.
The matching figures for `Cn1nnn(-c2cc(Nc3ncc(C(F)(F)F)c(NC[C@@H]4CCCN5CCCC[C@H]45)n3)c(F)cc2C2CC2)c1=O` [Compound 102, 1-(5-(4-(((1S,9aR)-octahydro-1H-quinolizin-1-yl)methylamino)-5-(trifluoromethyl)pyrimidin-2-ylamino)-2-cyclopropyl-4-fluorophenyl)-4-methyl-1H-tetrazol-5(4H)-one]: < 30 µM and 12.6 µM.
On the same counts, the results for `Cc1ccc(Nc2nccc(NC[C@@H]3CCCN4CCCC[C@H]34)n2)cc1-n1cnnn1` [Compound 47, N4-(((1S,9aR)-octahydro-1H-quinolizin-1-yl)methyl)-N2-(4-methyl-3-(1H-tetrazol-1-yl)phenyl)pyrimidine-2,4-diamine] are < 30 µM and 0.649 µM.
`Cn1nnn(-c2cc(Nc3ncc(Cl)c(NC[C@@H]4CCCN5CCCC[C@H]45)n3)c(F)cc2OC(C)(C)CO)c1=O` [Compound 153, 1-(5-((5-chloro-4-((((1S,9aR)-octahydro-2H-quinolizin-1-yl)methyl)amino)pyrimidin-2-yl)amino)-4-fluoro-2-((1-hydroxy-2-methylpropan-2-yl)oxy)phenyl)-4-methyl-1,4-dihydro-5H-tetrazol-5-one]: the IC50 is < 30 µM under setting [1] and 0.832 µM under setting [2].
On the same counts, the results for `O=c1[nH]c2cc(Nc3nccc(NC[C@@H]4CCCN5CCCC[C@H]45)n3)ccc2o1` [Compound 58, 5-(4-(((1S,9aR)-octahydro-1H-quinolizin-1-yl)methylamino)pyrimidin-2-ylamino)benzo[d]oxazol-2(3H)-one] are < 30 µM and 18.6 µM.
The matching figures for `COc1cc(F)cc(Nc2ncc(F)c(NC[C@@H]3CCCN4CCCC[C@H]34)n2)c1` [Compound 21, 5-fluoro-N2-(3-fluoro-5-methoxyphenyl)-N4-(((1S,9aR)-octahydro-1H-quinolizin-1-yl)methyl)pyrimidine-2,4-diamine]: < 30 µM and 0.702 µM.
On the same counts, the results for `C[C@@H](O)COc1cc(F)c(Nc2ncc(C#N)c(NC[C@@H]3CCCN4CCCC[C@H]34)n2)cc1-n1nnn(C)c1=O` [Compound 143, 2-((2-fluoro-4-((R)-2-hydroxypropoxy)-5-(4-methyl-5-oxo-4,5-dihydro-1H-tetrazol-1-yl)phenyl)amino)-4-((((1S,9aR)-octahydro-2H-quinolizin-1-yl)methyl)amino)pyrimidine-5-carbonitrile] are < 30 µM and 0.147 µM.
For the compound `CCN1C(=O)C(F)(F)Oc2cc(Nc3ncc(F)c(NC[C@@H]4CCCN5CCCC[C@H]45)n3)cnc21` [Compound 27, 7-(4-(((1S,9aR)-octahydro-1H-quinolizin-1-yl)methylamino)-5-fluoropyrimidin-2-ylamino)-4-ethyl-2,2-difluoro-2H-pyrido[3,2-b][1,4]oxazin-3(4H)-one], the IC50 reads like this: under setting [1], < 30 µM; under setting [2], 0.652 µM.
